Test results published in publication PMC11504387, “Synthesis and Biological Activity Assessment of 2-Styrylbenzothiazoles as Potential Multifunctional Therapeutic Agents” (Antioxidants, 2024).
Marks after values point to notes of the source that are not given here.

How the values were obtained:
skin HaCat keratinocytes = test: Cell growth inhibition assay, HaCat; type: cell-based, human; conditions: Homo sapiens, HaCaT; 24 h incubation; mean ± SD
Procedure: (§1) Cell growth inhibition analyses were performed on human melanoma Colo38 cells and skin HaCat keratinocytes. Human melanoma Colo38 cells were kindly given by Dr. Patrizio Giacomini (Laboratory of Immunology, Regina Elena Institute, Rome, Italy). HaCat cells were obtained from Istituto Zooprofilattico Sperimentale della Lombardia e dell’Emilia-Romagna, Brescia, Italy. Cells were seeded at 40,000 cells/mL and 25,000 cells/mL, respectively. Colo38 cells were maintained in RPMI 1640, supplemented with 10% foetal bovine serum (FBS), penicillin (100 Units/mL), and streptomycin (100 µg/mL). HaCat cells were maintained in DMEM, supplemented with 10% fatal bovine serum (FBS), penicillin (100 Units/mL), streptomycin (100 µg/mL) and glutamine (2 mM); the incubation was performed at 37 °C in a 5% CO2 atmosphere. Compounds were dissolved in DMSO to obtain 50 mM stock solutions and diluted before cell treatment in MeOH. The tested compounds were added at serial dilutions to the cell cultures (from 0.1 to 100 µM) and incubated for 24 h further. Cells were then harvested, suspended in physiological solution, and counted with a Z2 Coulter Counter (Coulter Electronics, Hialeah, FL, USA). The number of cells/mL and the IC50 values were determined when untreated cells were in the log phase of cell growth. Samples of vehicles and untreated cells were included in each plate. Cisplatin was used as positive control for the HaCat cells, while N1-(4-arylidene)-1H-(2-OH-4-N(Et)2-phenyl)-[d]imidazole-2-carbohydrazide was used as positive control for the Colo38 cell line.

PMNL = test: ROS production in PMA-stimulated PMNL; type: cell-based, human; conditions: 10 µM; for ROS Production (% of Control): mean ± SD
Procedure: After 10 min at 37 °C, PMA (0.1 μM) was added. The fluorescence emission at 530 nm was measured after excitation at 485 nm in a thermally controlled (37 °C) NOVOstar microplate reader (BMG Lab technologies GmbH, Offenburg, Germany). […] ROS generation was induced by phorbol-12-myristate-13-acetate (PMA), a widely recognized agent for stimulating ROS production in neutrophils and enhancing endogenous superoxide formation. Diphenyleneiodonium (DPI, 10 µM), a NADPH oxidase inhibitor, served as a positive control. Through this assay, we could assess the potential interaction of our compounds with intracellular ROS production and their capacity to act as radical scavengers within a relevant cellular context. Furthermore, the outcomes provided additional insights into their inhibitory mechanism and helped to determine whether they act directly or non-specifically, as there is evidence that an impact on the ROS levels in PMNL could be translated to modulation of 5-LO activity in the cellular environment. […] With those data in hand, together with 5-LO inhibition assay outcomes, a direct inhibition of the enzyme stands as the best fitting option regarding the mechanism of action of compounds BZTst4 and BZTst6. […] This phenomenon was not further explored because such investigation was beyond the scope of this work.

[1] = Photostability of O/W emulsions under solar simulator; type: physicochemical; conditions: for %UVAPfeff.: residual UVAPF after solar irradiation; for %UVAPfeff. / %SPFeff.: O/W emulsion on PMMA; for %SPFeff.: residual in vitro SPF after solar irradiation; for Photostability (classification, threshold 80%): O/W emulsion, solar irradiation
Procedure: Oil-in-water (O/W) emulsions containing individual filters were spread on PMMA sheet and irradiated with a solar simulator by applying different doses of UVA equivalent to an erythema effective radiant exposure of 100 J/m^2. Photostability was assessed by analysing the spectral transmittance, before and after irradiation, of the sunscreen thin film, measured before and after exposure from 290 to 400 nm. The residual percentages of SPF in vitro (%SPFeff.) and UVAPF (%UVAPFeff.) were calculated according to Equations (6) and (7), respectively. When the %SPFeff. and %UVAPFeff. are greater than or equal to 80, according to current regulations, a filter can be considered photostable [37].
To evaluate the effectiveness and safety profile of a sunscreen formulation, it is necessary to provide data on its photostability. Photodegradation data can be obtained by recording the pre- and post-irradiation transmittance spectra of PMMA plates with finger-coat formulations exposed to a dose of UVA capable of causing erythema. This method, established by Garoli et al., is used to determine photostability. The sun protection layer’s transmission in the range of 290–400 nm is recorded before and after exposure to sunlight, following the protocol.
The residual percentages of SPF in vitro (%SPFeff.) and UVAPf (%UVAPfeff.) were calculated using Equations (6) and (7) and are listed in Table 4. A filter can be classified as photostable if the %SPFeff. is greater than or equal to 80, according to regulatory standards. %SPFeff. = in vitro SPFafter/in vitro SPFbefore × 100(6) %UVAPfeff. = UVAPfafter/UVAPfbefore × 100(7) where SPFafter and SPFbefore are the SPF values calculated from the software after and before solar irradiation, and UVAPfafter and UVAPfbefore are the UVAPf values calculated from the software after and before solar irradiation.

[2] = DPPH radical scavenging activity; type: biochemical; conditions: mean ± SD; for DPPH Inhibition %: 1 mg/mL
Procedure: For all the compounds, 0.750 mL of a DMSO-MeOH solution mixed with 1.5 mL of DPPH solution (0.004%) in MeOH was analysed. The samples were kept in the dark at room temperature for 30 min and then analysed with a spectrophotometer by reading the absorbance at 517 nm (lambda max of the absorption spectrum of the DPPH radical). Equation (5) was used to obtain the percentage inhibition (%) of the radical: DPPH radical-scavenging capacity (%) = [1 − (A1 − A2)/A0] × 100%(5) where A2 is the blank (MeOH), and A1 and A0 are, respectively, the recorded absorbances of the sample and control (0.750 MeOH and 1.5 mL DPPH solution), directly proportional to the concentration of residual DPPH. An initial screening was performed by testing all compounds at a concentration of 1 mg/mL (Trolox® was used as the standard); subsequently, compounds showing >90% radical inhibition were further tested to calculate their IC50 value (expressed in µg/mL). Ferulic acid was used as positive control. A linear regression was performed to calculate the sample concentration able to eliminate 50% of DPPH free radicals.

[3] = Ferric reducing antioxidant power (FRAP) test; type: biochemical; conditions: Trolox equivalents; mean ± SD
Procedure: The FRAP test, based on a colorimetric reaction, can assess the ability of a sample to reduce ferric ions to ferrous ions when complexed with 2,4,6-trispiridyl-s-triazine (TPTZ). The FRAP solution consisted of 0.1 M acetate buffer (pH 3.6), 10 mmol/L of TPTZ in 40 mM HCl and a 20 mM solution of FeCl3, in a 10:1:1 ratio. A 1.9 mL volume of the FRAP solution was incubated with 0.1 mL of the sample solution at 37 °C for 10 min. The absorbance was then read with a UV-Vis spectrophotometer at a wavelength of 593 nm, which corresponds to the maximum absorbance peak of the Fe^2+-TPTZ complex. Trolox® was used as a standard, and ferulic acid was used as positive control, and the results are expressed as µmol TE/g.

[4] = tested on: human melanoma Colo38 cells; test: Cell growth inhibition assay, Colo38; type: cell-based; conditions: for IC50: Homo sapiens, 24 h incubation, mean ± SD; for SI (selectivity index): IC50 HaCat / IC50 Colo38
Procedure: as §1

SMILES	IC50 (skin HaCat keratinocytes)	Effect on ROS production (in words) (PMNL)	ROS Production (% of Control) (PMNL)	%UVAPfeff. [1]	%SPFeff. [1]	DPPH Inhibition % [2]	FRAP [3]	IC50 [4]	SI (selectivity index) [4]	Lowering of ROS production (PMNL)	DPPH IC50 (sample concentration able to scavenge 50% of the DPPH radical) ([2]; values in brackets)	Photostability (classification, threshold 80%) [1]
COc1ccc(/C=C/c2nc3ccccc3s2)cc1O [BZTst5, (E)-5-(2-(benzo[d]thiazol-2-yl)vinyl)-2-methoxyphenol]	86 ± 40.7 µM	do not display any significant interference	99.62 ± 4.14 % of control	106.30%	100.00%	46.88 ± 0.60%	788.09 ± 14.46 µmolTE/g	> 100 µM	<1	–	–	–
Oc1ccc(/C=C/c2nc3ccccc3s2)cc1 [BZTst2, (E)-4-(2-(benzo[d]thiazol-2-yl)vinyl)phenol]	85.8 ± 17.9 µM	unexpected rise in the ROS level	>150% ^a % of control	95.96%	104.43%	26.70 ± 0.83%	1122.44 ± 25.14 µmolTE/g	79.8 ± 4.7 µM	1.07	–	–	–
Oc1ccc(/C=C/c2nc3ccccc3s2)cc1O [BZTst4, (E)-4-(2-(benzo[d]thiazol-2-yl)vinyl)benzene-1,2-diol]	80.2 ± 24.7 µM	–	53.81 ± 16.30 % of control	101.57%	104.02%	88.54 ± 0.47%	5673.33 ± 86.42 µmolTE/g	58.1 ± 12.1 µM	1.38	< 50%	10.46 ± 0.27 µg/mL	–
COc1ccc(/C=C/c2nc3ccccc3s2)cc1 [BZTst3, (E)-2-(4-methoxystyryl)benzo[d]thiazole]	> 100 µM	do not display any significant interference	108.70 ± 12.15 % of control	152.12%	103.21%	<LOQ ^b	178.71 ± 8.17 µmolTE/g	> 100 µM	–	–	–	–
C(=C\c1nc2ccccc2s1)/c1ccccc1 [BZTst1, (E)-2-styrylbenzo[d]thiazole]	> 100 µM	do not display any significant interference	124.78 ± 17.88 % of control	54.38%	99.14%	<LOQ ^b	331.15 ± 6.29 µmolTE/g	85.6 ± 2.76 µM	>1.17	–	–	cannot be considered photostable
COc1cc(/C=C/c2nc3ccccc3s2)ccc1O [BZTst6, (E)-4-(2-(benzo[d]thiazol-2-yl)vinyl)-2-methoxyphenol]	> 100 µM	–	62.50 ± 5.62 % of control	80.75%	93.59%	18.86 ± 0.11 ^c %	3262.22 ± 7.86 µmolTE/g	71.5 ± 14.2 µM	>1.40	< 50%	–	photostable
